This is an account of results in ChEMBL document CHEMBL4725259 (Bioorg Med Chem, 2020).

In this assay the target is T1, 5-hydroxytryptamine receptor 2C (Homo sapiens, UniProt P28335).
T1 sequence (P28335 whole entry): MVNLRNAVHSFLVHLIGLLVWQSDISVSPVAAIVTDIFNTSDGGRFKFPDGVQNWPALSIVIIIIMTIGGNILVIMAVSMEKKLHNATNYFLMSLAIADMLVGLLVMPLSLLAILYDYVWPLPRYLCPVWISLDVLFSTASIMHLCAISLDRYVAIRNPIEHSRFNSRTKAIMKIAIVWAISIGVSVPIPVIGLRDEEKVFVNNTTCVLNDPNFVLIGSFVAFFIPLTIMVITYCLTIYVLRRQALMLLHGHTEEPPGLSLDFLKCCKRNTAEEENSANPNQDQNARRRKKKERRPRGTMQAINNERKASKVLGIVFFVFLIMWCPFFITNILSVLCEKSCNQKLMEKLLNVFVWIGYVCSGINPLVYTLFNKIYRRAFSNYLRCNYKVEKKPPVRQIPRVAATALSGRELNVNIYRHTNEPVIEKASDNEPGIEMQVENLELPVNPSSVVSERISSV
As to the kind of experiment: Antagonist activity at HTR2C in human U2OS cells by PathHunter beta-arrestin assay. In kind it is cell-based.

As a reminder, the IC50 is the concentration that inhibits the measured activity by half. As for `COC(=O)[C@@H]1[C@H]2C[C@@H](c3[nH]c4ccccc4c3CCn3cc(-c4cccc(Cl)c4)nn3)N(C#N)C[C@@H]2CC[C@@H]1O`, the IC50 was 180 nM.
